Measured values: the supplement of paper PMC10307832

Assays:
Assay in all cases: relative viability (nuclei count vs DMSO), 5 days (fraction); higher = more cells survive
[1] = compound: C=CCNC1=C2C[C@@H](C)C[C@H](OC)[C@H](O)[C@@H](C)/C=C(\C)[C@H](OC(N)=O)[C@@H](OC)/C=C\C=C(/C)C(=O)NC(=CC1=O)C2=O [17-AAG] + CC(=O)Nc1cccc(-n2c(=O)n(C3CC3)c(=O)c3c(Nc4ccc(I)cc4F)n(C)c(=O)c(C)c32)c1 [Trametinib] (partner 0.02 µM)
In short: (§1)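 Each reported value is a median over duplicate plates. It expresses relative viability: treated-well nuclei count divided by vehicle-well nuclei count. Lung cancer cell lines in 1536-well plates were dosed by pin tool a day after seeding, alone with one drug or with a fixed anchor-drug dose plus five library-drug doses (not always all listed) in √10 steps, and nuclei were counted after 5 days.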

[2] = compound: C=CCNC1=C2C[C@@H](C)C[C@H](OC)[C@H](O)[C@@H](C)/C=C(\C)[C@H](OC(N)=O)[C@@H](OC)/C=C\C=C(/C)C(=O)NC(=CC1=O)C2=O [17-AAG] + CS(=O)(=O)N1CCN(Cc2cc3nc(-c4cccc5[nH]ncc45)nc(N4CCOCC4)c3s2)CC1 [Pictilisib] (partner 1 µM)
In short: as §1

[3] = compound: C=CCNC1=C2C[C@@H](C)C[C@H](OC)[C@H](O)[C@@H](C)/C=C(\C)[C@H](OC(N)=O)[C@@H](OC)/C=C\C=C(/C)C(=O)NC(=CC1=O)C2=O [17-AAG] + CC(C)C[C@H](NC(=O)[C@H](Cc1ccccc1)NC(=O)c1cnccn1)B(O)O [Bortezomib] (partner 0.002 µM)
In short: as §1

[4] = compound: C=CCNC1=C2C[C@@H](C)C[C@H](OC)[C@H](O)[C@@H](C)/C=C(\C)[C@H](OC(N)=O)[C@@H](OC)/C=C\C=C(/C)C(=O)NC(=CC1=O)C2=O [17-AAG] + O=C(c1cc(Cc2n[nH]c(=O)c3ccccc23)ccc1F)N1CCN(C(=O)C2CC2)CC1 [Olaparib] (partner 8 µM)
In short: as §1

Cell Line	relative viability ([1]; first compound 0.00128 µM)	relative viability ([1]; first compound 0.004048 µM)	relative viability ([1]; first compound 0.0128 µM)	relative viability ([1]; first compound 0.04048 µM)	relative viability ([1]; first compound 0.128 µM)	relative viability ([2]; first compound 0.00128 µM)	relative viability ([2]; first compound 0.004048 µM)	relative viability ([2]; first compound 0.0128 µM)	relative viability ([2]; first compound 0.04048 µM)	relative viability ([2]; first compound 0.128 µM)	relative viability ([3]; first compound 0.00128 µM)	relative viability ([3]; first compound 0.004048 µM)	relative viability ([3]; first compound 0.0128 µM)	relative viability ([3]; first compound 0.04048 µM)	relative viability ([3]; first compound 0.128 µM)	relative viability ([4]; first compound 0.00128 µM)	relative viability ([4]; first compound 0.004048 µM)	relative viability ([4]; first compound 0.0128 µM)	relative viability ([4]; first compound 0.04048 µM)	relative viability ([4]; first compound 0.128 µM)
NCI-H647	0.402	0.29	0.0765	0.0969	0.0756	0.454	0.253	0.0973	0.15	0.106	0.912	0.761	0.0902	0.1	0.0699	0.575	0.237	0.0687	0.0686	0.0642
NCI-H650	0.983	1.03	0.934	0.551	0.224	0.96	1.05	0.744	0.776	0.329	0.78	0.99	0.669	0.236	0.204	0.392	0.355	0.412	0.212	0.0846
NCI-H661	0.588	0.533	0.522	0.295	0.23	0.39	0.534	0.363	0.259	0.275	0.857	0.912	0.781	0.637	0.393	0.804	0.716	0.529	0.333	0.253
NCI-H727	0.356	0.409	0.319	0.237	0.221	0.405	0.513	0.217	0.171	0.198	0.795	0.766	0.784	0.322	0.229	0.619	0.737	0.696	0.707	0.386
NCI-H838	0.536	0.487	0.126	0.115	0.1	0.498	0.306	0.174	0.157	0.132	0.962	0.653	0.124	0.136	0.0816	0.768	0.591	0.139	0.128	0.133
NCI-H1355	0.466	0.446	0.363	0.241	0.167	0.512	0.439	0.264	0.183	0.151	1.21	1.11	1.28	0.26	0.144	0.749	0.718	0.459	0.2	0.136
NCI-H1437	0.582	0.562	0.32	0.291	0.195	0.534	0.489	0.144	0.0969	0.0847	0.606	0.389	0.176	0.123	0.0811	0.626	0.609	0.285	0.194	0.173
NCI-H1650	0.657	0.252	0.143	0.126	0.114	0.49	0.212	0.128	0.173	0.144	0.217	0.219	0.181	0.224	0.197	0.721	0.636	0.147	0.156	0.113
NCI-H1651	0.781	0.855	0.838	0.77	0.604	0.568	0.54	0.363	0.148	0.131	0.859	0.928	0.872	0.89	0.425	0.173	0.19	0.21	0.153	0.159
NCI-H1666	0.858	0.826	0.639	0.575	0.481	0.585	0.302	0.265	0.196	0.157	0.78	0.687	0.244	0.228	0.171	0.756	0.721	0.712	0.526	0.556
NCI-H1734	0.759	0.633	0.576	0.245	0.15	0.447	0.468	0.361	0.205	0.151	0.917	0.897	0.734	0.269	0.145	0.558	0.686	0.59	0.255	0.119
NCI-H1755	0.808	0.716	0.705	0.741	0.23	0.446	0.407	0.229	0.126	0.09	0.966	0.9	0.817	0.391	0.189	0.873	0.849	0.903	0.712	0.238
NCI-H1792	0.483	0.337	0.216	0.0858	0.056	0.326	0.308	0.253	0.171	0.143	0.912	0.807	0.839	0.802	0.137	0.456	0.284	0.221	0.0633	0.0524
NCI-H1915	0.293	0.302	0.23	0.103	0.0681	0.848	0.992	0.832	0.207	0.0693	0.846	1.02	0.85	0.884	0.118	0.263	0.268	0.233	0.129	0.0621
NCI-H1975	0.319	0.358	0.207	0.124	0.147	0.3	0.176	0.116	0.119	0.103	0.445	0.34	0.149	0.145	0.119	0.745	0.765	0.158	0.128	0.121
